Four molecules from PMC4069108 (PLoS ONE, 2014) can be followed below.

Assay [1] concerns the target T1, recombinant human MT1 receptor purified from Pichia pastoris (MT1 purified) (Homo sapiens, UniProt P48039).
T1 construct: gene MTNR1A; alpha-factor signal, Flag and 10-His tags
As to the kind of experiment: [3H]-melatonin competition, PEG precipitation and filtration. Type of assay: binding. The settings on record: for MT1 purified / pKi ± SEM: purified in […] Fos14/[…] CHAPS; […] [3H]-melatonin, […] CHAPS/[…] CHS, pH […] MgCl2, […] °C, […] h. An excerpt: [3H]-melatonin competition, PEG precipitation and filtration on recombinant human MT1 receptor purified from Pichia pastoris (MT1 purified)

For assay [2], the target named is T2, human melatonin MT1 receptor (MT1 CHO membranes) (Homo sapiens, UniProt P48039).
T2 construct: gene MTNR1A; receptor cDNA in pcDNA3.1, no tag mentioned; crude membranes
T2 sequence (P48039 whole entry): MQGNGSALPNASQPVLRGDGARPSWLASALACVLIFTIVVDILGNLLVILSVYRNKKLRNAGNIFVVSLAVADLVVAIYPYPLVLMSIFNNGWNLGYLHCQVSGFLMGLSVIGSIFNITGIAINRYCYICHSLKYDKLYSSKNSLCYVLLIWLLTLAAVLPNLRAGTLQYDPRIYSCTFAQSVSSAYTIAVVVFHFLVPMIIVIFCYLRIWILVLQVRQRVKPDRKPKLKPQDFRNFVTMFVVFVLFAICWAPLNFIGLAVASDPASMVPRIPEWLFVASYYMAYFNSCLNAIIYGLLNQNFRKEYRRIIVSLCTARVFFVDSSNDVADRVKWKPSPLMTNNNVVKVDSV
As to the kind of experiment: [3H]-melatonin competition, filtration. Type of assay: binding. Particulars: for MT1 CHO membranes / pKi ± SEM: CHO membranes; […] [3H]-melatonin, pH […] MgCl2, […] °C, […] h. The source says:
[3H]-melatonin competition, filtration on human melatonin MT1 receptor (MT1 CHO membranes)

T1 sequence (P48039 whole entry): as above

With `NCCc1c[nH]c2ccc(O)cc12` [5HT], the Ki in assay [1] (read-out: MT1 purified / pKi ± SEM (converted)) and in assay [2] (read-out: MT1 CHO membranes / pKi ± SEM (converted)) was greater than 10 µM throughout.
With `COc1ccc2[nH]c(-c3cccc4ccccc34)c(CCNC(=O)CI)c2n1` [S 70254], the “MT1 purified / pKi ± SEM” value in assay [1] is recorded as 8.51±0.12 pKi (-log M). For the same molecule, in assay [2], the “MT1 CHO membranes / pKi ± SEM” value is listed as 7.32±0.31 pKi (-log M).
For `COc1ccc(CCN(C)CCCC(C#N)(c2cc(OC)c(OC)c(OC)c2)C(C)C)cc1OC` (centres unmarked) [D600] the same measures were 7.25±0.06 pKi (-log M) and 7.76±0.15 pKi (-log M).
For `COc1ccc2ncn(CCNC(C)=O)c2c1` [S 21278] the same measures were 7.02±0.14 pKi (-log M) and 7.71±0.14 pKi (-log M).
